Results: patent US8258134B2, “Pyridazinone glucokinase activators” (Hoffmann-La Roche Inc., priority 2008, dated 2012)

Target: T1, Recombinant human liver GK1 (GST-GK) (Homo sapiens, UniProt P35557)
T1 construct: made in house; host or cells: E. coli
T1 sequence (P35557 1-466 isoform P35557-2): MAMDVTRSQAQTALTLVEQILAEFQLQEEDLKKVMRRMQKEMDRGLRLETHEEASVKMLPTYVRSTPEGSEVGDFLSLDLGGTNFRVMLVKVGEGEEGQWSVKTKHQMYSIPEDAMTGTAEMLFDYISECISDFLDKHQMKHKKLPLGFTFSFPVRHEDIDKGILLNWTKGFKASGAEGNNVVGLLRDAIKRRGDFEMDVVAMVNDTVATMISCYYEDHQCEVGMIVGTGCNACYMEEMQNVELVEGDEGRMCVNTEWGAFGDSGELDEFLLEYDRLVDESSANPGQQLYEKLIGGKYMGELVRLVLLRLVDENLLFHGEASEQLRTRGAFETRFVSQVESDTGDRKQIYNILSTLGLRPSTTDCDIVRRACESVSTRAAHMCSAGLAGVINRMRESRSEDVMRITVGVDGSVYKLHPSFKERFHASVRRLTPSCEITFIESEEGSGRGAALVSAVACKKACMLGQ
Test: Glucokinase in vitro assay (G6PDH-coupled NADH generation, OD340)
Assay type: biochemical
Conditions: 5 mM D-glucose; for fold activation @ 30 uM: 30 uM test compound; for SC1.5 average (concentration of activator that produced a 50% increase in the activity of GK): 30° C., pH 7.1, 10% DMSO
How it was run: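 Activation readout is SC1.5, the activator concentration raising GK rate (OD340/min) 50% above 10% DMSO controls. The coupled reaction used GST-GK1 from E. coli, 5 mM glucose, 1 mM ATP, 1.8 mM NAD and 25 mM Hepes pH 7.1 at 30° C. Enzyme was added after a 10 min compound pre-incubation.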

| Structure (SMILES) | fold activation @ 30 uM | SC1.5 average (concentration of activator that produced a 50% increase in the activity of GK) |
| --- | --- | --- |
| Cn1ccc(NC(=O)C(CC2CCCC2)n2ncccc2=O)n1 (stereo not drawn) [Example 82, 3-Cyclopentyl-N-(1-methyl-1H-pyrazol-3-yl)-2-(6-oxo-6H-pyridazin-1-yl)-propionamide] | 1.3 fold | > 30 µM |
| Cn1ccc(NC(=O)C(CC2CCCC2)n2nc(Oc3ccccc3)ccc2=O)n1 (stereo not drawn) [Example 85, 3-cyclopentyl-N-(1-methyl-1H-pyrazol-3-yl)-2-(6-oxo-3-phenoxy-6H-pyridazin-1-yl)-propionamide] | 1.3 fold | > 30 µM |
| CC(C)(O)Cn1ccc(NC(=O)C(CC2CCCC2)n2ncc(Oc3cccc4c3OC(C)(C)C4)cc2=O)n1 (stereo not drawn) [Example 89, 3-Cyclopentyl-2-[4-(2,2-dimethyl-2,3-dihydro-benzofuran-7-yloxy)-6-oxo-6H-pyridazin-1-yl]-N-[1-(2-hydroxy-2-methyl-propyl)-1H-pyrazol-3-yl]-propionamide] |  | 0.568 µM |
| CC1CCCC(C)C1Oc1cnn(C(CC2CCCC2)C(=O)Nc2ccn(C[C@@H](O)CO)n2)c(=O)c1 (stereo partly drawn) [Example 91, 3-Cyclopentyl-N-[1-((R)-2,3-dihydroxy-propyl)-1H-pyrazol-3-yl]-2-[4-(2,6-dimethyl-cyclohexyloxy)-6-oxo-6H-pyridazin-1-yl]-propionamide] | 1.28 fold | > 30 µM |
| O=C(Nc1ccn(C[C@@H](O)CO)n1)C(CC1CCCC1)n1ncc(Oc2cccc(Cl)c2Cl)cc1=O (stereo partly drawn) [Example 92, 3-Cyclopentyl-2-[4-(2,3-dichloro-phenoxy)-6-oxo-6H-pyridazin-1-yl]-N-[1-((R)-2,3-dihydroxy-propyl)-1H-pyrazol-3-yl]-propionamide] |  | 0.135 µM |
| Cc1ccc(Oc2cnn(C(CC3CCCC3)C(=O)Nc3ccn(C[C@@H](O)CO)n3)c(=O)c2)c2c1CCC2 (stereo partly drawn) [Example 93, 3-Cyclopentyl-N-[1-((R)-2,3-dihydroxy-propyl)-1H-pyrazol-3-yl]-2-[4-(7-methyl-indan-4-yloxy)-6-oxo-6H-pyridazin-1-yl]-propionamide] |  | 0.114 µM |
| O=C(Nc1ccn(C[C@@H](O)CO)n1)C(CC1CCCC1)n1ncc(OC2CCC2)cc1=O (stereo partly drawn) [Example 94, 2-(4-Cyclobutoxy-6-oxo-6H-pyridazin-1-yl)-3-cyclopentyl-N-[1-((R)-2,3-dihydroxy-propyl)-1H-pyrazol-3-yl]-propionamide] | 1.33 fold | > 30 µM |

Next, values leading:

| fold activation @ 30 uM | SC1.5 average (concentration of activator that produced a 50% increase in the activity of GK) | Structure (SMILES) |
| --- | --- | --- |
|  | 8.783 µM | O=C(Nc1nccs1)C(CC1CCCC1)n1ncc2ccccc2c1=O (stereo not drawn) [Example 83, 3-Cyclopentyl-2-(1-oxo-1H-phthalazin-2-yl)-N-thiazol-2-yl-propionamide] |
|  | 15.983 µM | CC(C)(O)Cn1ccc(NC(=O)C(CC2CCCC2)n2ncc3ccccc3c2=O)n1 (stereo not drawn) [Example 84, 3-Cyclopentyl-N-[1-(2-hydroxy-2-methyl-propyl)-1H-pyrazol-3-yl]-2-(1-oxo-1H-phthalazin-2-yl)-propionamide] |
|  | 0.204 µM | Cc1ccc(C)c(Oc2cnn(C(CC3CCCC3)C(=O)Nc3ccn(CC(C)(C)O)n3)c(=O)c2)c1C (stereo not drawn) [Example 88, 3-Cyclopentyl-N-[1-(2-hydroxy-2-methyl-propyl)-1H-pyrazol-3-yl]-2-[6-oxo-4-(2,3,6-trimethyl-phenoxy)-6H-pyridazin-1-yl]-propionamide] |
|  | 0.5 µM | CC(C)(O)Cn1ccc(NC(=O)C(CC2CCCC2)n2ncc(Oc3ccccc3C(C)(C)C)cc2=O)n1 (stereo not drawn) [Example 90, 2-[4-(2-tert-Butyl-phenoxy)-6-oxo-6H-pyridazin-1-yl]-3-cyclopentyl-N-[1-(2-hydroxy-2-methyl-propyl)-1H-pyrazol-3-yl]-propionamide] |
